The source of these data is US9765105B2, “Macrolide compound” (Pulike Biological Engineering, Inc., priority 2013, dated 2017).

Assay in all cases: in vitro susceptibility, MIC by mini broth dilution
Holding throughout (format): cell-based
Background: Dilution methods test growth across graded concentrations, often in twofold steps.

For one test, the system named is Haemophilus parasuis. As for the experimental part:
(§1) in vitro tests of susceptibility of the compounds according to the present disclosure against bacterial strains commonly used in laboratories. In accordance with the Performance Standards for Antimicrobial Disk Susceptibility Tests: Approved Standard published by the US National Committee for Clinical Laboratory Standards, the antibacterial activities of compounds prepared according to examples 5 to 187 were tested. The MICs (minimum inhibitory concentration) of the medicaments prepared according to the examples on the following bacterial strains were measured through mini broth dilution technique. Staphylococcus aureus CVCC26003, Streptococcus equines CVCC556. Actinobacillus pleuropneumoniae CVCC262, Haemophilus parasuis, and Pasteurella multocida CVCC399, which were purchased from the Control Institute of Veterinary Bioproducts and Pharmaceuticals, China. 4.1.2 Culture Media for the Rest Four Bacterial Strains. Liquid culture medium: […] Solid culture medium: […] The strains were taken out of a refrigerator at −20° C. to be revived, and were spreaded by streaking on the solid culture medium with an inoculating loop. The inoculated culture medium was cultured at 35° C. in a constant temperature incubator for 20 h. […] were selected from a well-grown culture plate and streaked on the solid culture medium. The inoculated culture medium was cultured at 35° C. in the constant temperature incubator for 20 h. […] A 96-well plate was used, and 100 μl of DMSO was added into each of wells 2 to 11, and 200 μl of ready-prepared medicament solution was added into the 1st well, 100 μl of the medicament solution was extracted from the 1st well and added into the 2nd well. Double dilution was performed until the 11th well, thereby forming 11 gradients. In this case, compound of parent plate was prepared. 3 μl of double diluted medicament solution was extracted with a 12-channel pipettor and added into wells 1-11 of a new disposable 96-well culture plate. The 12th well thereof is a control well. For each medicament, there are two adjacent rows which are parallel. The transferred compound plate was reserved for later use. […] The dilution ratio was recorded, and the bacterial liquid for the tests was diluted according to the recorded dilution ratio. Subsequently, the bacterial suspension and the liquid culture medium were diluted in the proportion of 1:200. The diluted solution was reserved for later use.

Test [1] has as its system Actinobacillus pleuropneumoniae CVCC262. The settings on record: strain CVCC262. The method, then:
as §1

In test [2] the test system is Pasteurella multocida CVCC399. The following applies: strain CVCC399. The method, then: as §1
Test [3] has as its system Streptococcus equines CVCC556. The settings on record: strain CVCC556. As for the experimental part: as §1
The subject of test [4] is Staphylococcus aureus CVCC26003. The following applies: strain CVCC26003. As for the experimental part:
in vitro tests of susceptibility of the compounds according to the present disclosure against bacterial strains commonly used in laboratories. In accordance with the Performance Standards for Antimicrobial Disk Susceptibility Tests: Approved Standard published by the US National Committee for Clinical Laboratory Standards, the antibacterial activities of compounds prepared according to examples 5 to 187 were tested. The MICs (minimum inhibitory concentration) of the medicaments prepared according to the examples on the following bacterial strains were measured through mini broth dilution technique. Staphylococcus aureus CVCC26003, Streptococcus equines CVCC556. Actinobacillus pleuropneumoniae CVCC262, Haemophilus parasuis, and Pasteurella multocida CVCC399, which were purchased from the Control Institute of Veterinary Bioproducts and Pharmaceuticals, China. 4.1.1 Culture Medium for Staphylococcus aureus CVCC26003 Liquid culture medium: CAMHB. […] Solid culture medium: NINA prepared according to the specification of the final product. The strains were taken out of a refrigerator at −20° C. to be revived, and were spreaded by streaking on the solid culture medium with an inoculating loop. The inoculated culture medium was cultured at 35° C. in a constant temperature incubator for 20 h. […] were selected from a well-grown culture plate and streaked on the solid culture medium. The inoculated culture medium was cultured at 35° C. in the constant temperature incubator for 20 h. […] A 96-well plate was used, and 100 μl of DMSO was added into each of wells 2 to 11, and 200 μl of ready-prepared medicament solution was added into the 1st well, 100 μl of the medicament solution was extracted from the 1st well and added into the 2nd well. Double dilution was performed until the 11th well, thereby forming 11 gradients. In this case, compound of parent plate was prepared. 3 μl of double diluted medicament solution was extracted with a 12-channel pipettor and added into wells 1-11 of a new disposable 96-well culture plate. The 12th well thereof is a control well. For each medicament, there are two adjacent rows which are parallel. The transferred compound plate was reserved for later use. […] The dilution ratio was recorded, and the bacterial liquid for the tests was diluted according to the recorded dilution ratio. Subsequently, the bacterial suspension and the liquid culture medium were diluted in the proportion of 1:200. The diluted solution was reserved for later use.

As for `CC[C@H]1OC(=O)[C@H](C)[C@@H](O[C@H]2C[C@@](C)(OC)[C@](O)(CNCCCNCCc3ccc(S(C)(=O)=O)cc3)[C@H](C)O2)[C@H](C)[C@@H](O[C@@H]2O[C@H](C)C[C@H](N(C)C)[C@H]2O)[C@](C)(O)C[C@@H](C)NC[C@H](C)[C@@H](O)[C@]1(C)O` [Syzx-61, (2R,3S,4R,5S,8R,10R,11R,12S,13S,14R)-13-[(2,6-dideoxy-3-C-methyl-3-O-methyl-4-C-[[(4-mesylphenylethylamino)propylamino]-methyl]-α-L-ribopyranosyl)oxy]-2-ethyl-3,4,10-trihydroxy-3,5,8,10,12,14-hexamethyl-11-[[3,4,6-trideoxy-3-(dimethylamino)-β-D-xylo-hexopyranosy]oxy]-1-oxa-7-azacyclopentadecan-15-one], the “MIC values, Haemophilus parasuis” value against Haemophilus parasuis was “≦0.25 ug/mi”. For the same molecule, the “MIC values, Actinobacillus pleuropneumoniae CVCC262” value in test [1] was found to be 32 ug/mi. Further, the “MIC values, Pasteurella multocida CVCC399” value in test [2] amounted to 1 ug/mi. The “MIC values, Streptococcus equines CVCC556” value in test [3] came to 0.5 ug/mi. Also, the “MIC values, Staphylococcus aureus CVCC26003” value in test [4] is reported as “≦0.25 ug/mi”.
Take `CCCN1C[C@H](C)[C@@H](O)[C@](C)(O)[C@@H](CC)OC(=O)[C@H](C)[C@@H](O[C@H]2C[C@@](C)(OC)[C@](O)(CNC(C)(C)C)[C@H](C)O2)[C@H](C)[C@@H](O[C@@H]2O[C@H](C)C[C@H](N(C)C)[C@H]2O)[C@](C)(O)C[C@H]1C` [syzx-1 14]: the “MIC values, Haemophilus parasuis” value against Haemophilus parasuis turned out to be 0.25 ug/mi. Also, the “MIC values, Actinobacillus pleuropneumoniae CVCC262” value in test [1] stood at 0.25 ug/mi. Besides, the “MIC values, Pasteurella multocida CVCC399” value in test [2] was 0.25 ug/mi. Further, in test [3], the “MIC values, Streptococcus equines CVCC556” value was 0.25 ug/mi. Further, in test [4], the “MIC values, Staphylococcus aureus CVCC26003” value was found to be 0.25 ug/mi.
`CCC1OC(=O)C(C)C(OC2CC(C)(OC)C(O)(CNc3ccccc3)C(C)O2)C(C)C(OC2OC(C)CC(N(C)C)C2O)C(C)(O)CC(C)NCC(C)C(O)C1(C)O` [syzx-4, (2R,3S,4R,5S,8R,10R,11R,12S,13S,14R)-13-[(2,6-dideoxy-3-C-methyl-3-O-methyl-4-C-[(phenylamino)methyl]-α-L-ribopyranosyl)oxy]-2-ethyl-3,4,10-trihydroxy-3,5,8,10,12,14-hexamethyl-11-[[3,4,6-trideoxy-3-(dimethylamino)-β-D-xylo-hexopyranosy]oxy]-1-oxa-7-azacyclopentadecan-15-one]: the “MIC values, Haemophilus parasuis” value in the test on Haemophilus parasuis came to 0.5 ug/mi. Also, the “MIC values, Actinobacillus pleuropneumoniae CVCC262” value in test [1] was determined as 32 ug/mi. Besides, the “MIC values, Pasteurella multocida CVCC399” value in test [2] is recorded as 1 ug/mi. In addition, the “MIC values, Streptococcus equines CVCC556” value in test [3] is reported as “≦0.25 ug/mi”. For the same molecule, in test [4], the “MIC values, Staphylococcus aureus CVCC26003” value is recorded as 1 ug/mi.
Take `CC[C@H]1OC(=O)[C@H](C)[C@@H](O[C@H]2C[C@@](C)(OC)[C@](O)(Cn3cccc3)[C@H](C)O2)[C@H](C)[C@@H](O[C@@H]2O[C@H](C)C[C@H](N(C)C)[C@H]2O)[C@](C)(O)C[C@@H](C)NC[C@H](C)[C@@H](O)[C@]1(C)O` [syzx-7, (2R,3S,4R,5S,8R,10R,11R,12S,13S,14R)-13-[(2,6-dideoxy-3-C-methyl-3-O-methyl-4-C-[(pyrryl)methyl]-α-L-ribopyranosyl)oxy]-2-ethyl-3,4,10-trihydroxy-3,5,8,10,12,14-hexamethyl-11-[[3,4,6-trideoxy-3-(dimethylamino)-β-D-xylo-hexopyranosy]oxy]-1-oxa-7-azacyclopentadecan-15-one]: the “MIC values, Haemophilus parasuis” value against Haemophilus parasuis is recorded as “≦0.25 ug/mi”. Also, the “MIC values, Actinobacillus pleuropneumoniae CVCC262” value in test [1] was 2 ug/mi. Further, the “MIC values, Pasteurella multocida CVCC399” value in test [2] stood at 0.25 ug/mi. Besides, the “MIC values, Streptococcus equines CVCC556” value in test [3] was “≦0.25 ug/mi”. In test [4], the “MIC values, Staphylococcus aureus CVCC26003” value was “≦0.25 ug/mi”.
With `CC[C@H]1OC(=O)[C@H](C)[C@@H](O[C@H]2C[C@@](C)(OC)[C@](O)(CNCc3ccc(F)cc3)[C@H](C)O2)[C@H](C)[C@@H](O[C@@H]2O[C@H](C)C[C@H](N(C)C)[C@H]2O)[C@](C)(O)C[C@@H](C)NC[C@H](C)[C@@H](O)[C@]1(C)O` [syzx-8, (2R,3S,4R,5S,8R,10R,11R,12S,13S,14R)-13-[(2,6-dideoxy-3-C-methyl-3-O-methyl-4-C-[(4-fluorobenzylamino)methyl]-α-L-ribopyranosyl)oxy]-2-ethyl-3,4,10-trihydroxy-3,5,8,10,12,14-hexamethyl-11-[[3,4,6-trideoxy-3-(dimethylamino)-β-D-xylo-hexopyranosy]oxy]-1-oxa-7-azacyclopentadecan-15-one], in the test on Haemophilus parasuis, the “MIC values, Haemophilus parasuis” value is listed as “≦0.25 ug/mi”. For the same molecule, the “MIC values, Actinobacillus pleuropneumoniae CVCC262” value in test [1] is 0.5 ug/mi. For the same molecule, the “MIC values, Pasteurella multocida CVCC399” value in test [2] turned out to be 0.25 ug/mi. For the same molecule, the “MIC values, Streptococcus equines CVCC556” value in test [3] is “≦0.25 ug/mi”. In addition, in test [4], the “MIC values, Staphylococcus aureus CVCC26003” value is “≦0.25 ug/mi”.
Regarding `CC[C@H]1OC(=O)[C@H](C)[C@@H](O[C@H]2C[C@@](C)(OC)[C@](O)(Cn3ccnc3)[C@H](C)O2)[C@H](C)[C@@H](O[C@@H]2O[C@H](C)C[C@H](N(C)C)[C@H]2O)[C@](C)(O)C[C@@H](C)NC[C@H](C)[C@@H](O)[C@]1(C)O` [syzx-9, (2R,3S,4R,5S,8R,10R,11R,12S,13S,14R)-13-[(2,6-dideoxy-3-C-methyl-3-O-methyl-4-C-[(imidazolyl)methyl]-α-L-ribopyranosyl)oxy]-2-ethyl-3,4,10-trihydroxy-3,5,8,10,12,14-hexamethyl-11-[[3,4,6-trideoxy-3-(dimethylamino)-β-D-xylo-hexopyranosy]oxy]-1-oxa-7-azacyclopentadecan-15-one], the “MIC values, Haemophilus parasuis” value against Haemophilus parasuis is given as “≦0.25 ug/mi”. Moreover, the “MIC values, Actinobacillus pleuropneumoniae CVCC262” value in test [1] is on record as 0.5 ug/mi. For the same molecule, the “MIC values, Pasteurella multocida CVCC399” value in test [2] is recorded as “≦0.25 ug/mi”. Moreover, the “MIC values, Streptococcus equines CVCC556” value in test [3] was “≦0.25 ug/mi”. Moreover, in test [4], the “MIC values, Staphylococcus aureus CVCC26003” value is “≦0.25 ug/mi”.
Regarding `CC[C@H]1OC(=O)[C@H](C)[C@@H](O[C@H]2C[C@@](C)(OC)[C@](O)(CNCc3ccc(OC)cc3)[C@H](C)O2)[C@H](C)[C@@H](O[C@@H]2O[C@H](C)C[C@H](N(C)C)[C@H]2O)[C@](C)(O)C[C@@H](C)NC[C@H](C)[C@@H](O)[C@]1(C)O` [syzx-18, (2R,3S,4R,5S,8R,10R,11R,12S,13S,14R)-13-[(2,6-dideoxy-3-C-methyl-3-O-methyl-4-C-[(4-methoxybenzylamino)methyl]-α-L-ribopyranosyl)oxy]-2-ethyl-3,4,10-trihydroxy-3,5,8,10,12,14-hexamethyl-11-[[3,4,6-trideoxy-3-(dimethylamino)-β-D-xylo-hexopyranosy]oxy]-1-oxa-7-azacyclopentadecan-15-one], the “MIC values, Haemophilus parasuis” value in the test on Haemophilus parasuis stood at 0.5 ug/mi. The “MIC values, Actinobacillus pleuropneumoniae CVCC262” value in test [1] is 16 ug/mi. Further, the “MIC values, Pasteurella multocida CVCC399” value in test [2] was found to be 2 ug/mi. Also, the “MIC values, Staphylococcus aureus CVCC26003” value in test [4] is given as 0.5 ug/mi.
